Measured values: ChEMBL document CHEMBL1124016, “Antihypertensive activity in a series of 1-piperazino-3-phenylindans with potent 5-HT2-antagonistic activity” (J Med Chem, 1988)

Legend:
Mus musculus = species: Mus musculus; experiment: Inhibition of methyl phenidate induced stereotyped gnawing in mice; type: functional
Rattus norvegicus [1] = experiment: Percent reduction of blood pressure in spontaneously hypertensive rat after 10 min at intraperitoneal administration of 5 mg/kg; type: functional
[2] = biological target: Serotonin 2 (5-HT2) receptor (Rattus norvegicus, UniProt P30994+P08909+P14842); experiment: Inhibition of [3H]spiperone binding to 5-hydroxytryptamine 2 receptor from rat cortical membranes; type: cell membranes, Membrane
Rattus norvegicus [3] = species: Rattus norvegicus; experiment: Inhibition of L-5-HTP (L-5-hydroxytryptophan) induced head twitches in rat; type: functional
D(2) dopamine receptor = D(2) dopamine receptor (Rattus norvegicus, UniProt P61169); experiment: Inhibition of [3H]spiperone binding to Dopamine receptor D2 from rat striatal membranes; type: cell membranes, Membrane
Chain of D(2) dopamine receptor (P61169 whole entry): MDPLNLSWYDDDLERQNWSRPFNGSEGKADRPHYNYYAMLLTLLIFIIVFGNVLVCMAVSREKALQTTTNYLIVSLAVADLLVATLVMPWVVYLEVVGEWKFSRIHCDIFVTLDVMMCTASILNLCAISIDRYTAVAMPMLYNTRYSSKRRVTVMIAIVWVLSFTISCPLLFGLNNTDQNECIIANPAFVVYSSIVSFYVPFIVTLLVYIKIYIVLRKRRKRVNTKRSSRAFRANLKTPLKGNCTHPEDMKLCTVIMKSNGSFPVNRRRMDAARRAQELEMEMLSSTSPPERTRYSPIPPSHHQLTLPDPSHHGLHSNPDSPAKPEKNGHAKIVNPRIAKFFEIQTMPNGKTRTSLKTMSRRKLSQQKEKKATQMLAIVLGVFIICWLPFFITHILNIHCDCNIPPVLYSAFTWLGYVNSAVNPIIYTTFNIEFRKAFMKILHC

[4] = Rattus norvegicus, read-out: ED50

**Q.** Which ED50 (Mus musculus) does the source give for CN1CCN(CCN2CCN(C3CC(c4ccc(F)cc4)c4ccccc43)CC2)C1=O.Cl.Cl.O (stereo not drawn) here?
**A.** > 80 µmol/kg

**Q.** What about the Reduction (Rattus norvegicus [1]) of the same molecule?
**A.** -6%

**Q.** And the IC50 [2]?
**A.** 13 nM

**Q.** How did the ED50 (Mus musculus) turn out when Fc1ccc(C2CC(N3CCN(CCN4CCN=C4S)CC3)c3ccccc32)cc1.O=C(O)/C=C\C(=O)O.O=C(O)/C=C\C(=O)O (stereo not drawn) was run?
**A.** > 61 µmol/kg

**Q.** What about the Reduction (Rattus norvegicus [1]) of the same molecule?
**A.** -18%

**Q.** What about the ED50 (Rattus norvegicus [3]; [4]) of the same molecule?
**A.** 0.43 µmol/kg

**Q.** What about the IC50 [2] of the same molecule?
**A.** 3.3 nM

**Q.** How did the ED50 (Mus musculus) turn out when Fc1ccc(C2CC(N3CCN(CCN4CCCN=C4S)CC3)c3cc(F)ccc32)cc1.O=C(O)/C=C\C(=O)O.O=C(O)/C=C\C(=O)O (stereo not drawn) was run?
**A.** 23 µmol/kg

**Q.** What about the Reduction (Rattus norvegicus [1]) of the same molecule?
**A.** -13%

**Q.** What about the IC50 (D(2) dopamine receptor) of the same molecule?
**A.** 51 nM

**Q.** What about the IC50 [2] of the same molecule?
**A.** 7.5 nM

**Q.** Which ED50 (Mus musculus) does the source give for O=C(O)/C=C\C(=O)O.O=C(O)/C=C\C(=O)O.O=C1NCCCN1CCN1CCN(C2CC(c3ccc(F)cc3)c3ccc(F)cc32)CC1 (stereo not drawn) here?
**A.** > 59 µmol/kg

**Q.** And the Reduction (Rattus norvegicus [1])?
**A.** 0%

**Q.** And the IC50 [2]?
**A.** 11 nM

**Q.** With O=C(O)/C=C\C(=O)O.O=C(O)/C=C\C(=O)O.O=C1NCCN1CCN1CCN(C2CC(c3ccccc3)c3ccccc32)CC1 (stereo not drawn) as the molecule, how does the ED50 (Mus musculus) read?
**A.** > 64 µmol/kg

**Q.** What about the IC50 (D(2) dopamine receptor) of the same molecule?
**A.** 1900 nM

**Q.** And the ED50 (Rattus norvegicus [3])?
**A.** 26 µmol/kg

**Q.** What about the IC50 [2] of the same molecule?
**A.** 12 nM

**Q.** For O=C1NCCN1CCN1CCN(C(=O)c2ccccc2)CC1, which ED50 (Mus musculus) is on record?
**A.** > 132 µmol/kg

**Q.** And the Reduction (Rattus norvegicus [1])?
**A.** 6%

**Q.** What about the IC50 (D(2) dopamine receptor) of the same molecule?
**A.** > 1000 nM

**Q.** What about the ED50 (Rattus norvegicus [3]; [4]) of the same molecule?
**A.** > 8.2 µmol/kg

**Q.** What about the IC50 [2] of the same molecule?
**A.** 4800 nM

**Q.** Which results are given for O=C1NCCN1CCN1CCN(C(=O)c2ccc(F)cc2)CC1?
**A.** ED50 (Mus musculus): > 125 µmol/kg; Reduction (Rattus norvegicus [1]): 11%; IC50 (D(2) dopamine receptor): > 1000 nM; ED50 (Rattus norvegicus [3]; [4]): 1.8 µmol/kg; IC50 [2]: 58000 nM
